Measurements from patent publication US8252559B2, “Methods and systems for selective fluorination of organic molecules” (The California Institute of Technology, priority 2006, dated 2012).

Assay: in vitro
Conditions: PAMPA; for Papp at 0.5 mg/mL: pig, pH 7.4
Procedure: Effective permeability values (Pe) are calculated by monitoring accumulation of the organic molecule in a cross-membrane compartment. […] M+/M− refers to the fraction of compound that crossed the BBB-mimic membrane as compared to system with no membrane after 16 hour incubation at room temperature. Values are means of three replicates.
Membrane permeability assay. The membrane permeability assays were carried out adapting a described procedure and using 96-well MultiScreen-IP plates from Millipore. Filter plates were rinsed with 70% EtOH and double-distilled water prior to use. BBB-mimic membranes were prepared by coating filter wells with 5 μL porcine brain lipids (PBL, Avanti Polar Lipids) in dodecane (20 mg/mL). Control wells (PBL-free) were primed in the same way but not coated with PBL. Working solutions contained 0.5 mg/mL fluorinated compound in PBS pH 7.4 (5% EtOH). Assembled plates contained 150 μL working solution in the PBL-coated (or PBL-free) well, 300 μL PBS (5% EtOH) in the acceptor well, and were incubated at room temperature and 100% humidity. The change in organic compound concentration in the donor and acceptor wells was monitored over time by HPLC. Membrane permeability values (Pe) were calculated. All measurements were performed in triplicates. The assay was validated by comparing the experimental Pe value for caffeine with that reported in the art.
Ibuprofen has recently shown promising activity against amyloidogenic diseases. Anti-amyloidogenic drugs with high brain permeability are intensively sought after. Compounds 15, 16 and 18 were tested in a membrane permeability assay that mimics the composition of the blood-brain barrier (BBB).

SMILES	Papp at 0.5 mg/mL [nm/s]	Membrane permeability properties / BBB-crossing potential (in words)
Cn1c(=O)c2c(ncn2C)n(C)c1=O [Caffeine, reference compound]	12.4	–
COC(=O)C(C)c1ccc(CC(C)(C)F)cc1 (centres unmarked) [Compound 16, 2-[4-(2-Fluoro-2-methyl-propyl)-phenyl]-propionic acid methyl ester]	> 100	very good
COC(=O)C(C)c1ccc(C(F)C(C)(C)F)cc1 (centres unmarked) [Compound 18, 2-[4-(1,2-Difluoro-2-methyl-propyl)-phenyl]-propionic acid methyl ester]	> 100	excellent
COC(=O)C(C)c1ccc(CC(C)C)cc1 (centres unmarked) [Compound 12, 2-(4-Isobutyl-phenyl)-propionic acid methyl ester, reference compound]	–	modest BBB-crossing potential
COC(=O)C(C)c1ccc(C(F)C(C)C)cc1 (centres unmarked) [Compound 15, 2-[4-(1-Fluoro-2-methyl-propyl)-phenyl]-propionic acid methyl ester]	> 100	very good
